Assay results from patent US7758856B2, “Bacteriophage for the treatment of bacterial biofilms” (Biocontrol Limited, priority 2003, dated 2010).
Values after ≈ are worked out from the molar mass of the structure shown.

Columns and labels:
Ps. aeruginosa = test: Minimal inhibition concentration of tobramycin; assay type: cell-based; conditions: Pseudomonas aeruginosa
[1] = CF patients, nebulisation twice a day (tobramycin 80 mg; Colistin 2 mega units); cited from earlier work
[2] = test system: Ps. aeruginosa GH56 biofilms; test: In vitro biofilm model (chemostat and Robbins device, viable counts on PVC disks)
Experimental: Each port allows insertion of a sampling stud that contains a polyvinyl chloride (PVC) disk that lies flush to the upper surface of the lumen. The continuous culture is pumped through the Robbins device and biofilms are formed on the surface of PVC disks exposed to the culture.
A 10-ml aliquot of an 18 hour culture of Pseudomonas aeruginosa, at approximately 10^8 cfu per ml, was used to inoculate the sterile growth media within the chemostat. The inocula was introduced into the chemostat through the sample port in the top plate. • ii. Following inoculation, the chemostat was operated as a batch culture for 4 h to allow establishment of the culture. • iii. Medium addition (½ strength nutrient broth, Oxoid) was commenced at the desired flow rate (1 ml per min) and the effluent pump was activated. The flow rate of the effluent pump was the same as the inflow pump. The effluent tubing bypassed the Robbins devices leading straight to the main waste reservoir. • iv. The continuous chemostat was run for a predetermined time until a steady state was attained (96-hours). At this stage, the tubes leading to the Robbins devices were positioned onto the multi-head pump, thus instigating culture flow through the Robbins devices. • v. […] The medium, effluent and culture volumes were recorded on the run sheet and the flow rates calculated accordingly. […]

| Compound | MIC (Ps. aeruginosa) [µg/mL] | serum levels [1] | effect on Ps. aeruginosa sessile (biofilm) population ([2]; four applications at MIC (4 mg L^-1), over 24 h / 48 h) | effect on biofilm viability / sessile population ([2]; tobramycin at 10xMIC, four applications) |
| --- | --- | --- | --- | --- |
| NC[C@H]1O[C@H](O[C@H]2[C@H](O)[C@@H](O[C@H]3O[C@H](CO)[C@@H](O)[C@H](N)[C@H]3O)[C@H](N)C[C@@H]2N)[C@H](N)C[C@@H]1O [tobramycin] | 4 (≈ 8.56 µM) | unmeasurable | no significant effect | no significant effect |
| Colistin | – | unmeasurable | – | – |
